Experimental findings from patent publication US8153674B2, “Organic compounds” (Novartis AG, priority 2006, dated 2012) are described below.

The target in data set [1] is T1, aldosterone synthase (CYP11B2) (Homo sapiens, UniProt P19099).
T1 construct: host or cells: NCI-H295R
T1 sequence (P19099 25-503): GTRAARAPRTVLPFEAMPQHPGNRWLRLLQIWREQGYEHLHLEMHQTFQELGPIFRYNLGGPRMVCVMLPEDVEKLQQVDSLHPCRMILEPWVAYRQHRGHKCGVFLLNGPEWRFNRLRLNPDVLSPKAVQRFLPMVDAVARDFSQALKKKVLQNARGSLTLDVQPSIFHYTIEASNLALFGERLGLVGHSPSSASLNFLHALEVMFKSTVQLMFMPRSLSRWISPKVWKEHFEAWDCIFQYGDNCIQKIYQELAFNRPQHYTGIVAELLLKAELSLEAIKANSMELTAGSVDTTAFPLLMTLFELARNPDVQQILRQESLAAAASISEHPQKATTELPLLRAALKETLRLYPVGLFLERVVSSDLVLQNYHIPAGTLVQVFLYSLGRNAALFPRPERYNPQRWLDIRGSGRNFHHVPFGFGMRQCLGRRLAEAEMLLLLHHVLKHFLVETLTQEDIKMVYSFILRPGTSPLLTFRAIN
Kind of data set: In vitro aldosterone synthase inhibition: cellular aldosterone production in Ang II-stimulated NCI-H295R cells. Type of data set: cell-based. Particulars: 1 μM Ang II, 24 hr. The text has this:
In particular, the aldosterone synthase inhibitory activities in vitro can be determined by the following assay.
Human adrenocortical carcinoma NCI-H295R cell line is obtained from American Type Culture Collection (Manassas, Va.). Insulin/transferrin/selenium (ITS)-A supplement (100×), DMEM/F-12, antibiotic/antimycotic (100×), and fetal calf serum (FCS) are purchased from Gibco (Grand Island, N.Y.). Anti-mouse PVT scintillation proximity assay (SPA) beads and NBS 96-well plates are obtained from Amersham (Piscataway, N.J.) and Corning (Acton, Mass.), respectively. Solid black 96-well flat bottom plates are purchased from Costar (Corning, N.Y.). Aldosterone and angiotensin (Ang II) are purchased from Sigma (St. Louis, Mo.). D-[1,2,6,7-^3H(N)]aldosterone is acquired from PerkinElmer (Boston, Mass.). Nu-serum is a product of BD Biosciences (Franklin Lakes, N.J.).
For in vitro measurement of aldosterone activity, human adrenocortical carcinoma NCI-H295R cells are seeded in NBS 96-well plates at a density of 25,000 cells/well in 100 μl of a growth medium containing DMEM/F12 supplemented with 10% FCS, 2.5% Nu-serum, 1 μg ITS/ml, and 1× antibiotic/antimycotic. The medium is changed after culturing for 3 days at 37° C. under an atmosphere of 5% CO2/95% air. On the following day, cells are rinsed with 100 μl of DMEM/F12 and incubated with 100 μl of treatment medium containing 1 μM Ang II and a compound at different concentrations in quadruplicate wells at 37° C. for 24 hr. At the end of incubation, 50 μl of medium is withdrawn from each well for measurement of aldosterone production by an RIA using mouse anti-aldosterone monoclonal antibodies.
Measurement of aldosterone activity can also be performed using a 96-well plate format. Each test sample is incubated with 0.02 μCi of D-[1,2,6,7-^3H(N)]aldosterone and 0.3 μg of anti-aldosterone antibody in phosphate-buffered saline (PBS) containing 0.1% Triton X-100, 0.1% bovine serum albumin, and 12% glycerol in a total volume of 200 μl at room temperature for 1 hr. Anti-mouse PVT SPA beads (50 μl) are then added to each well and incubated overnight at room temperature prior to counting in a Microbeta plate counter. The amount of aldosterone in each sample is calculated by comparing with a standard curve generated using known quantities of the hormone.

Data set [2] addresses T2, CYP11B1 (Homo sapiens, UniProt P15538).
T2 construct: Thus, the NCI-H295R cells have Cyp11 B1 (steroid 11 p-hydroxylase); host or cells: NCI-H295R
T2 sequence (P15538 25-503): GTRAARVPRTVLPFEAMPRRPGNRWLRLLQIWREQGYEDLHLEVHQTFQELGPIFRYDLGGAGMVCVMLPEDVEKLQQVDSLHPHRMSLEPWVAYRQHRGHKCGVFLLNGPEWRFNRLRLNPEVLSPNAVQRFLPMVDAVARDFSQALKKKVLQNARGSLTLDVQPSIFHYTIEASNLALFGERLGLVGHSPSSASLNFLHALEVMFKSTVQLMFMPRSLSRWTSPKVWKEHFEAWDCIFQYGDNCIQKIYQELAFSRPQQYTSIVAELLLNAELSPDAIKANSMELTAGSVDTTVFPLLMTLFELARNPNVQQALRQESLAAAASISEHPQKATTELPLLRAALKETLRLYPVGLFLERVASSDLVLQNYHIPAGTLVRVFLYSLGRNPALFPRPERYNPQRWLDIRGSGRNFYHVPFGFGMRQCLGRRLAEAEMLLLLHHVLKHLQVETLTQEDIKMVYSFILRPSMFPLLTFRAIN
Kind of data set: In vitro CYP11B1 inhibition in NCI-H295R cells (steroid release, radioimmunoassay). Particulars: I %: percentage of inhibition; for inhibition at 0.1 µM: NCI-H295R, 100 nM. The format is cell-based. From the text: The in vitro inhibitory activities for CYP11B1 can be determined by the following assay.
The cell line NCI-H295R was originally isolated from an adrenocortical carcinoma and has been characterized in the literature through the stimulable secretion of steroid hormones and the presence of the enzymes essential for steroidogenesis. Thus, the NCI-H295R cells have Cyp11 B1 (steroid 11 p-hydroxylase). The cells show the physiological property of zonally undifferentiated human foetal adrenocortical cells which, however, have the capacity to produce the steroid hormones which are formed in the three, phenotypically distinguishable zones in the adult adrenal cortex. The NCI-H295R cells (American Type Culture Collection, ATCC, Rockville, Md., USA) are grown in Dulbeoco's Modified Eagle'Ham F-12 Medium (DME/F12), which has been I supplemented with Ulroser SF Serum(Soprachem, Cergy-Saint-Christophe, France), insulin, transferrin, selenite (1-T-S, Becton Dickinson Biosiences, Franklin lakes, NJ, USA) and antibiotics in 75 cm^2 cell culture vessels at 37° C. and in a 95% air-5% carbon dioxide atmosphere. The cells are subsequently transferred for colony formation into a 24-well incubation vessel. They are cultivated there in DME/F12 medium, which is now supplemented with 0.1% bovine serum instead of Ultroser SF for 24 hours. The experiment is initiated by cultivating the cells in DME/F12 medium which is supplemented with 0.1% bovine serum albumin and test compound, in the presence or absence of cell stimulants, for 72 hours. The test substance is added in a concentration range from 0.2 nanomolar to […]. Cell stimulants which can be used are angiotensin 11 ([…] or 100 nanomolar), potassium ions (16 millimolar), forskolin (10 micromolar) or a combination of two stimulants.
The excretion of aldosterone, cortisol, corticosterone and estradiol/estrone into the culture medium can be detected and quantified by commercially available, specific monoclonal antibodies in radioimmunoassays in accordance with the manufacturers instructions.
Inhibition of the release of certain steroids can be used as a measure of the respective enzyme inhibition by the added test compounds. The dose-dependent inhibition of enzymic activity by a compound is calculated by means of an inhibition plot which is characterized by an IC50.
The IC50 values for active test compounds are ascertained by a simple linear regression analysis in order to construct inhibition plots without data weighting. The inhibition plot is calculated by fitting a 4-parameter logistic function to the raw data points using the least squares method. The equation of the 4-parameter logistic function is calculated as follows: Y=(d−a)/((1+(x/c)b))+a I where: a=minimum data level b=gradient I c=ICED, d=maximum data level x=inhibitor concentration.

What is called IC50 is the midpoint of a concentration-inhibition curve. Compound “3-(3,3-dimethyl-1-oxo-isochroman-4-yl)-3H-imidazole-4-carbaldehyde oxime (trans) [Entry 5]” came in with an IC50 in data set [1] of 47 nM. In addition, the “CYP11B1 % I (100 nM)” value in data set [2] turned out to be 97%. One may read the inhibition as the share of the control response that was lost under treatment. `Cc1noc(-c2cncn2C2c3ccccc3C(=O)OC2(C)C)n1` (racemic) [Entry 4, 3,3-dimethyl-4-[5-(3-methyl-[1,2,4]oxadiazol-5-yl)imidazol-1-yl]-isochroman-1-one] yielded an IC50 in data set [1] of 187 nM. The inhibition at 0.1 µM in data set [2] amounted to 100%. Compound `COC(=O)c1cncn1C1c2ccccc2C(=O)N(C2CC2)C1(C)C` (racemic) [Entry 12, 3-(2-cyclopropyl-3,3-dimethyl-1-oxo-1,2,3,4-tetrahydro-isoquinolin-4-yl)-3H-imidazole-4-carboxylic acid methyl ester] gave an IC50 in data set [1] of 530 nM. The inhibition at 0.1 µM in data set [2] was found to be 77%. In data set [1], `COC(=O)c1cncn1C1c2ccccc2C(=O)N(C)C1(C)C` (racemic) [Entry 11, 3-(2,3,3-trimethyl-1-oxo-1,2,3,4-tetrahydro-isoquinolin-4-yl)-3H-imidazole-4-carboxylic acid methyl ester] returned an IC50 of 73 nM. In data set [2], the inhibition at 0.1 µM came to 95%. The matching figures for `CCCCc1cncn1C1c2ccccc2C(=O)OC1(C)C` (racemic) [Entry 6, 4-(5-butyl-imidazol-1-yl)-3,3-dimethyl-isochroman-1-one]: 6 nM and 100%.

Usually melting point stands for the temperature, or range, at which the solid turns liquid. As to `CCc1cncn1C1c2ccccc2C(=O)OC12CCC2` (stereo not shown) [Example 1(f), [4-(5-ethyl-imidazol-1-yl)-isochroman-1-one]-3-spirocyclobutane], the melting point lay in the range of 178 to 179 °C. In data set [1], `C=Cc1cncn1C1c2ccccc2C(=O)OC1(C)C` (single isomer, unassigned) [Entry 7, 4-(5-vinyl-imidazol-1-yl)-3,3-dimethyl-isochroman-1-one] registered an IC50 of 22 nM. For the same compound, the inhibition at 0.1 µM in data set [2] was 100%. Taken in the same sequence, the figures for `CCc1cncn1C1c2ccccc2C(=O)OC12CCC2` (single isomer, unassigned) [Entry 9, [4-(5-ethyl-imidazol-1-yl)-isochroman-1-one]-3-spirocyclobutane] were 7 nM and 100%.

In data set [1], `CCOC(=O)c1cncn1C1c2ccccc2C(=O)OC1(C)C` (single isomer, unassigned) [Entry 2, 3-(3,3-dimethyl-1-oxo-isochroman-4-yl)-3H-imidazole-4-carboxylic acid ethyl ester] showed a half-maximal inhibitory concentration (IC50) of 3 nM. Moreover, in data set [2], the inhibition at 0.1 µM was found to be 94%. In data set [1], `COC(=O)c1cncn1C1c2ccccc2C(=O)OC1(C)C` (single isomer, unassigned) [Entry 1, 3-(3,3-dimethyl-1-oxo-isochroman-4-yl)-3H-imidazole-4-carboxylic acid methyl ester] registered an IC50 of 24 nM. Besides, in data set [2], the inhibition at 0.1 µM came to 100%. As to `CCc1cncn1C1c2ccccc2C(=O)OC12CCOCC2` (racemic) [Entry 10, [4-(5-ethyl-imidazol-1-yl)-isochroman-1-one]-3-spiro(4-tetrahydropyran)], the IC50 in data set [1] was 314 nM. Further, in data set [2], the inhibition at 0.1 µM is 90%. `CC1(C)OC(=O)c2ccccc2C1n1cncc1C(=O)Oc1ccccc1` (single isomer, unassigned) [Entry 3, 3-(3,3-dimethyl-1-oxo-isochroman-4-yl)-3H-imidazole-4-carboxylic acid phenyl ester]: in data set [1], the IC50 turned out to be 3 nM. Also, the inhibition at 0.1 µM in data set [2] was 97%.

On to `CCOCc1cncn1C1c2ccccc2C(=O)OC1(C)C` (single isomer, unassigned) [Entry 8, 4-(5-ethoxymethyl-imidazol-1-yl)-3,3-dimethyl-isochroman-1-one], for which 17 nM corresponded to half-maximal inhibition in data set [1] (IC50). Further, the inhibition at 0.1 µM in data set [2] is 100%.
